From PMC12045974, “T cell toxicity induced by tigecycline binding to the mitochondrial ribosome” (Nature Communications, 2025)
Values joined by “and” are separate entries in the source; they are usually repeats but may differ in a detail not shown here. Equal values may be shown once.

Assays:
Type in all cases: cell-based, human
[1] = test system: PBMCs; experiment: Extracellular metabolic flux assay (Seahorse Mito Stress Test, OCR and ECAR); details: for glycolysis rates: vs untreated stimulated controls; for ATP coupled OCR / Basal OCR / Maximal OCR / Spare capacity OCR: PBMC, per donor
Method: The Seahorse XFe96 Analyzer (Seahorse Bioscience) was used to measure oxygen consumption rate (OCR) and extracellular acidification rate (ECAR) in human PBMCs. 1.5 × 10^6 cells/well were seeded in 24-well plates and stimulated using plate-bound anti-CD3 antibody (2 μg/ml, clone OKT3, BD Biosciences), soluble anti-CD28 antibody (0.5 μg/ml, clone CD28.2, Biolegend) and IL-2 (10 ng/ml, Proteintech) in RPMI-1640 (with 10% FBS, 2.05 mM L-glutamine (Sigma), and 55 μM 2-ME (Gibco)). Cells were treated with or without 5 and 10 µM Tigecycline for 6 days with a half medium change after 3 days. After treatment, cells were washed with Seahorse XF RPMI assay medium, and then 200,000 cells per well were seeded (in triplicate) in 40 μl assay medium in XF 96-well cell culture microplate coated with poly-D-lysine (Sigma). The plate was centrifuged at 300 g for 5 s with no brake, rotated 180 °, and centrifuged again for 5 s at 300 x g. After centrifugation, 140 μl of assay medium was added per well and the plate was left to stabilize in a 37 °C, non-CO2 incubator for 40 min. During seahorse, wells were sequentially injected with compounds to achieve final concentrations of […] oligomycin (Sigma); 2 μM FCCP (Sigma); 0.5 μM rotenone (Sigma) together with 0.5 μM antimycin A (Sigma). OCR was measured for each well three times, every three min, before and after each injection. OCR was normalized to protein concentration using a BCA Protein Assay kit (ThermoFisher Scientific) conducted according to the manufacturer’s instructions.

[2] = test system: CD4+ and CD8+ T cells; experiment: Short-term activation assay, CD25 expression on stimulated T cells; details: for mean MFI of CD25: 18 h after anti-CD3/CD28 activation + IL-2
Method: (§1) After thawing frozen PBMCs, cells were washed with RPMI complemented with 10% FBS, 2.05 mM L-glutamine (Sigma), and 55 μM 2-ME (Gibco) and rested at 37 °C (5% CO2) for 30 min. 250,000 cells per well were seeded in 96-well U-bottom plates with/without Human T-Activator CD3/CD28 beads (Invitrogen) at a 1:1 ratio and 10 ng/ml IL-2 (Proteintech) in RPMI-1640 medium mentioned above. At the same time, antibiotics were added. For the short-term activation assay, cells were harvested 18 h post-stimulation and stained with Aqua fixable live/dead dye (Invitrogen) and surface markers. For the proliferation assays, cells were stained with CFSE (eBioscience) or Cell Trace Violet (ThermoFisher Scientific) dyes before seeding and stimulation, according to the manufacturer’s recommendations. For TCR priming experiments, tigecycline was added at 0, 24 or 72 h post-activation. For mitochondrial mass measuring, cells were stained with Mitotracker Green Fm Dye (Thermo Fisher Scientific) after incubation with Tigecycline. After incubation for 6 days with a half medium (complete, with antibiotics and IL-2) change after 3 days, cells were harvested via centrifugation, and stained with live/dead dye and surface markers for analysis by flow cytometry. The Foxp3/Transcription Factor Staining Buffer Set (Invitrogen) was used to fix cells according to the manufacturer’s instructions. The FACS gating strategy is shown in Supplementary Fig. 2D. Flow cytometry was carried out on a BD Celesta (BD Biosciences) and analyzed in FlowJo (TreeStar) software.

[3] = test system: CD4+ and CD8+ T cells; experiment: Mitochondrial mass by MitoTracker Green staining; details: for mitochondrial mass (MitoTracker Green): 10 μM, after 24 h or 7 days of treatment
Method: as §1

CN(C)c1cc(NC(=O)CNC(C)(C)C)c(O)c2c1C[C@H]1C[C@H]3[C@H](N(C)C)C(O)=C(C(N)=O)C(=O)[C@@]3(O)C(O)=C1C2=O [Tigecycline, tigecycline]
glycolysis rates ([1]; 5 uM treatment): trended towards an increase | glycolysis rates ([1]; 10 uM treatment): trended towards being decreased | ATP coupled OCR ([1]; 5um): 0.02281 pmol/min/Norm. ug protein and -0.09216 pmol/min/Norm. ug protein and -0.102 pmol/min/Norm. ug protein and -0.498 pmol/min/Norm. ug protein | Basal OCR ([1]; 5um): -0.181 pmol/min/Norm. ug protein and -0.2066 pmol/min/Norm. ug protein and 0.2924 pmol/min/Norm. ug protein and 0.06036 pmol/min/Norm. ug protein | Maximal OCR ([1]; 5um): 0.6209 pmol/min/Norm. ug protein and 0.08625 pmol/min/Norm. ug protein and 0.8496 pmol/min/Norm. ug protein and -0.7482 pmol/min/Norm. ug protein | Spare capacity OCR ([1]; 5um): 0.2929 pmol/min/Norm. ug protein and 0.5571 pmol/min/Norm. ug protein and -0.8086 pmol/min/Norm. ug protein | ATP coupled OCR ([1]; 10um): -0.2018 pmol/min/Norm. ug protein and -0.1474 pmol/min/Norm. ug protein and -0.3438 pmol/min/Norm. ug protein and 0.00593 pmol/min/Norm. ug protein | Basal OCR ([1]; 10um): -0.1538 pmol/min/Norm. ug protein and -0.01961 pmol/min/Norm. ug protein and -0.5181 pmol/min/Norm. ug protein and 0.03583 pmol/min/Norm. ug protein | Maximal OCR ([1]; 10um): 0.1774 pmol/min/Norm. ug protein and 0.3784 pmol/min/Norm. ug protein and -0.2836 pmol/min/Norm. ug protein and 0.05421 pmol/min/Norm. ug protein | Spare capacity OCR ([1]; 10um): 0.398 pmol/min/Norm. ug protein and 0.2345 pmol/min/Norm. ug protein and 0.01838 pmol/min/Norm. ug protein | glycolysis (ECAR) ([1]; stimulated PBMCs, 5 and 10 μM, 6 days): did not observe a major compensatory increase in glycolysis | basal, ATP-coupled, maximal and spare oxygen consumption rates ([1]; stimulated PBMCs, 5 and 10 μM, 6 days after stimulation): reduced | mean MFI of CD25 ([2]; CD4, 2.5 μM): 3754 and 3553 and 3674 | mean MFI of CD25 ([2]; CD4, 5 μM): 3471 and 3450 and 3256 | mean MFI of CD25 ([2]; CD4, 10 μM): 3082 and 3057 and 2814 | mean MFI of CD25 ([2]; CD8, 2.5 μM): 4522 and 5003 and 6223 | mean MFI of CD25 ([2]; CD8, 5 μM): 4093 and 4409 and 4799 | mean MFI of CD25 ([2]; CD8, 10 μM): 3582 and 3463 and 3588 | expression of T cell activation marker CD25 (IL2RA) ([2]; stimulated CD4+ and CD8+ T cells, 18 h post-priming): reduced expression | mitochondrial mass (MitoTracker Green) [3]: no significant changes in mitochondrial mass | mitochondrial mass (MitoTracker Green) ([3]; listed as tigecyline): comparable mitochondrial mass | mitochondrial mass relative to Unstim (=1), sheet sFig-1E+F ([3]; 24H, CD4, Stim-10µM, per PBMC donor): 1.522 and 1.33 and 0.8198 | mitochondrial mass relative to Unstim (=1), sheet sFig-1E+F ([3]; 24H, CD4, Unstim-10µM, per PBMC donor): 1.004 and 0.6673 and 1.041 | mitochondrial mass relative to Unstim (=1), sheet sFig-1E+F ([3]; 24H, CD8, Unstim-10µM, per PBMC donor): 0.5804 and 1.017 and 1.063 | mitochondrial mass relative to Unstim (=1), sheet sFig-1E+F ([3]; 7 days, CD4, STI 24H, per PBMC donor): 2.7235 and 3.361 and 2.725 | mitochondrial mass relative to Unstim (=1), sheet sFig-1E+F ([3]; 7 days, CD4, STI 72H, per PBMC donor): 2.708 and 3.517 and 2.769 | mitochondrial mass relative to Unstim (=1), sheet sFig-1E+F ([3]; 7 days, CD4, Stim-10µM, per PBMC donor): 2.414 and 2.323 and 2.6393 | mitochondrial mass relative to NO STI (=1), sheet sFig-1E+F ([3]; 7 days, CD8, STI-10µM, per PBMC donor): 1.791 and 3.1924 and 2.433
